From article PMC7848139, “Novel Hybrid CHC from β-carboline and N-Hydroxyacrylamide Overcomes Drug-Resistant Hepatocellular Carcinoma by Promoting Apoptosis, DNA Damage, and Cell Cycle Arrest” (Frontiers in Pharmacology, 2021)

What was measured:
[1] = tested on: Huh7; assay: MTT antiproliferative assay, Huh7; assay type: cell-based; details: Homo sapiens, Huh-7, 72 h, mean ± SD of three experiments, read-out: In vitro antiproliferative activity (IC50) Huh7
Method: (§1) Briefly, appropriate cells (1 × 10^4 cells/mL) were placed into 96-well plates in 100 μL of DMEM medium overnight. Then adding 100 μL of evaluated compounds into individual well for 72 h while 0.1% DMSO aqueous solution was treated as the negative control. After incubation with 30 μl MTT (5 mg/mL) for 4 h in all well, and ELISA plate reader measured absorbance of each well at 570 nm. Then calculating cytotoxicity effect of evaluated compounds through the formula: Cell inhibitory percentage (%) = (1−OD of treatment group/OD of control) × 100%.

[2] = tested on: Bel7402; assay: MTT antiproliferative assay, Bel7402; assay type: cell-based; details: Homo sapiens, Bel-7402, 72 h, mean ± SD of three experiments, read-out: In vitro antiproliferative activity (IC50) Bel7402
Method: as §1

[3] = target: T1, recombinant human HDAC1 (Homo sapiens, UniProt Q13547); assay: HDAC fluorimetric assay, HDAC1; assay type: biochemical
T1 construct: purchased Enzo Life Sciences Inc
Method: The assay was conducted according to the HDAC1/3/6/8 assay kit (Enzo Life Sciences Inc.). Each different concentrations of evaluated compounds were, respectively, incubated with each HDAC1/3/6/8 at coupling of corresponding HDAC substrate (Boc-Lys (Ac)-AMC) at 37°C for 60 min. Then stopping the reaction under adding lysine developer.

[4] = tested on: Bel7402/5-FU xenografts; assay: In vivo tumor growth inhibition, Bel7402/5-FU xenograft; design: species or system BALB/c nude mice; details: intraperitoneal daily, 21 days
Method: All animal experimental protocols were approved by the Animal Research and Care Committee of Nantong University. Female BALB/c nude mice at 5∼6 week-old were subcutaneously implanted with 1×10^6 Bel7402/5-FU cells. […] The body mass and tumor size of nude mice were surveyed every three days during the 21 days study. Tumor size (mm^3) of nude mice was determined using the formula: tumor size = ½ (Length×Width^2). Finally, these tumor-bearing mice were sacrificed, and their tumors were removed and weighed at the end of the 21 days.
Data (means ± SD) were from tumor volumes or weight of each group of mice (n = 6 per group). *p < 0.01 vs. control group.

T1 sequence (Q13547 whole entry): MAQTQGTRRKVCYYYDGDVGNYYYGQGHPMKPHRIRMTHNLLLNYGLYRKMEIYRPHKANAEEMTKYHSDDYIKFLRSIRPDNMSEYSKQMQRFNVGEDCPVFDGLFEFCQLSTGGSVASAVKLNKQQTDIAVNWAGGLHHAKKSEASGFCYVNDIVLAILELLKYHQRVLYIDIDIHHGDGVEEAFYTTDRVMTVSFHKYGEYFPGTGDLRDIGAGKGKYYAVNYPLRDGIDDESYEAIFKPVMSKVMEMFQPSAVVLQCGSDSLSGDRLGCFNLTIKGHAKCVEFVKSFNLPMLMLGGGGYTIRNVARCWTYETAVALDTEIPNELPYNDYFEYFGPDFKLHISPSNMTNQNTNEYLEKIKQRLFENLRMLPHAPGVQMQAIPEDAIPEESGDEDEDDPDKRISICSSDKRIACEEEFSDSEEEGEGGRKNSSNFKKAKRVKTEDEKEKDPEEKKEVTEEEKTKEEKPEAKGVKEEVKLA

SMILES: CN(C)c1ccc(-c2nc(C(=O)NCc3ccc(/C=C/C(=O)NO)cc3)cc3c2[nH]c2ccccc23)cc1 [CHC, (E)-N-(4-(3-(hydroxyamino)-3-oxoprop-1-en-1-yl)benzyl)-1-(4-dimethylaminophenyl)-9H-pyrido [3,4-b]indole-3-carboxamide]
- IC50 [1]: 2890 ± 320 nM
- IC50 [2]: 1840 ± 230 nM
- IC50 on HDAC1 relative to SAHA ([3]; compared with SAHA): approximately five-fold lower
- IC50 ([3]; mean ± SD of three experiments): 29 ± 3 nM
- fold lower IC50 on HDAC1 than on HDAC3 ([3]; selectivity HDAC1 over HDAC3): 4 fold
- decrease of tumor mass compared to saline group ([4]; 70 μmol/kg): 65 % (w/w)
- tumor mass at end of treatment ([4]; 70 μmol/kg, n = 6, saline group 1.47 ± 0.21 g): 0.51 ± 0.08 g
- body mass change vs vehicle group [4]: no significant statistical difference
- xenograft hepatic tumor volume [4]: markedly diminished xenograft hepatic tumor volume
